Results as given in the NIST ThermoML archive (doi:10.1016/j.fluid.2010.10.009).

Columns and labels:
[1] = 303.15 K; 101.33 kPa; Liquid; Concentric cylinders viscometry
[2] = xn = mol fraction of the nth substance listed; conditions: 101 kPa, Liquid, Concentric cylinders viscometry

CC(C)(C)O [2-methylpropan-2-ol]
Conditions	viscosity [mPa·s]
[1]	3.387

CC(C)(C)O [2-methylpropan-2-ol] + CCCCCCC
viscosity [mPa·s], [2]
Conditions	303.15 K	308.15 K	313.15 K	318.15 K	323.15 K
x1 = 0.103	0.3899	0.3703	0.353	0.3329	0.3144
x1 = 0.2002	0.4118	0.3885	0.367	0.3441	0.3201
x1 = 0.3006	0.4501	0.4228	0.3983	0.3737	0.3489
x1 = 0.3999	0.4922	0.463	0.433	0.4062	0.3805
x1 = 0.5001	0.558	0.5194	0.4838	0.4507	0.419
x1 = 0.6001	0.6624	0.6063	0.5587	0.5157	0.4765
x1 = 0.6996	0.8071	0.7282	0.667	0.6022	0.5477
x1 = 0.8001	1.1	0.9711	0.8581	0.7681	0.6836
x1 = 0.9	1.699	1.426	1.214	1.044	0.9079
x1 = 0.95	2.263	1.86	1.541	1.293	1.096
x1 = 1	3.387	2.63	2.097	1.707	1.415

CC(C)(C)O [2-methylpropan-2-ol] + CCCCCCCC
viscosity [mPa·s], [2]
Conditions	303.15 K	308.15 K	313.15 K	318.15 K	323.15 K
x1 = 0.1002	0.5022	0.4758	0.4509	0.4272	0.4044
x1 = 0.2002	0.5263	0.4972	0.47	0.4443	0.4198
x1 = 0.2996	0.558	0.525	0.4943	0.4656	0.4377
x1 = 0.4003	0.6031	0.5644	0.5287	0.4956	0.4646
x1 = 0.5006	0.6658	0.6186	0.5757	0.5363	0.5
x1 = 0.5998	0.7587	0.6975	0.6429	0.5938	0.549
x1 = 0.7	0.912	0.8243	0.7485	0.6822	0.6233
x1 = 0.799	1.187	1.044	0.9254	0.8261	0.7415
x1 = 0.8499	1.438	1.236	1.075	0.9428	0.833
x1 = 0.9	1.781	1.496	1.275	1.099	0.958
x1 = 0.9235	2.015	1.669	1.404	1.198	1.034
x1 = 0.9499	2.353	1.913	1.584	1.333	1.136
x1 = 1	3.387	2.63	2.097	1.707	1.415

CC(C)(C)O [2-methylpropan-2-ol] + CCCCCCCCC
[2], x1 = 1
Conditions	viscosity [mPa·s]
303.15 K	3.387
308.15 K	2.63
313.15 K	2.097
318.15 K	1.707
323.15 K	1.415

CC(C)(C)O [2-methylpropan-2-ol] + CCCCCCCCCC
[2], x1 = 1
Conditions	viscosity [mPa·s]
303.15 K	3.387
308.15 K	2.63
313.15 K	2.097
318.15 K	1.707
323.15 K	1.415

CCCCCCCCCC [decane]
Conditions	viscosity [mPa·s]
[1]	0.7838

CCCCCCCCCC [decane] + CC(C)(C)O
viscosity [mPa·s], [2]
Conditions	303.15 K	308.15 K	313.15 K	318.15 K	323.15 K
x2 = 0	0.7838	0.7337	0.6883	0.6466	0.6085
x2 = 0.1003	0.7786	0.7263	0.6791	0.6362	0.597
x2 = 0.2001	0.7925	0.7382	0.6879	0.6422	0.6002
x2 = 0.3	0.825	0.7653	0.7104	0.6604	0.6153
x2 = 0.3997	0.8622	0.7934	0.7326	0.6775	0.627
x2 = 0.5	0.9148	0.8404	0.7726	0.7125	0.6566
x2 = 0.5999	0.9861	0.8974	0.8188	0.7493	0.6869
x2 = 0.6997	1.129	1.01	0.9091	0.8219	0.7459
x2 = 0.8001	1.372	1.199	1.058	0.9404	0.8399
x2 = 0.8999	1.937	1.621	1.376	1.182	1.024
x2 = 0.9499	2.366	1.948	1.614	1.357	1.155

CCCCCCC [heptane]
Conditions	viscosity [mPa·s]
[1]	0.3773

CCCCCCC [heptane] + CC(C)(C)O
[2], x2 = 0
Conditions	viscosity [mPa·s]
303.15 K	0.3773
308.15 K	0.3603
313.15 K	0.3432
318.15 K	0.3269
323.15 K	0.3106

CCCCCCCCC [nonane]
Conditions	viscosity [mPa·s]
[1]	0.6323

CCCCCCCCC [nonane] + CC(C)(C)O
viscosity [mPa·s], [2]
Conditions	303.15 K	308.15 K	313.15 K	318.15 K	323.15 K
x2 = 0	0.6323	0.5974	0.5652	0.5352	0.5073
x2 = 0.1012	0.6377	0.5996	0.5644	0.532	0.502
x2 = 0.2008	0.6593	0.6177	0.5795	0.5442	0.5114
x2 = 0.3	0.6872	0.6414	0.5995	0.5608	0.5247
x2 = 0.3999	0.7276	0.676	0.6289	0.5857	0.5459
x2 = 0.4995	0.7904	0.7297	0.6749	0.6251	0.5795
x2 = 0.5998	0.8796	0.8038	0.7366	0.6766	0.6227
x2 = 0.6991	1.027	0.923	0.8336	0.7558	0.6874
x2 = 0.7997	1.297	1.136	1.003	0.8918	0.7976
x2 = 0.9	1.856	1.556	1.323	1.137	0.9883
x2 = 0.9494	2.392	1.944	1.608	1.351	1.151

CCCCCCCC [octane]
Conditions	viscosity [mPa·s]
[1]	0.4918

CCCCCCCC [octane] + CC(C)(C)O
[2], x2 = 0
Conditions	viscosity [mPa·s]
303.15 K	0.4918
308.15 K	0.4684
313.15 K	0.447
318.15 K	0.425
323.15 K	0.4049
